Measured values: publication PMC12197363 (Viruses, 2025)
Where two headings read alike, the source gives them in different places.

How the values were obtained:
Norovirus 3CL^pro [1] = molecular target: T1, Norovirus 3CL^pro (Norovirus GII.4, UniProt P54634); assay: Cell-based FlipGFP assay of 3CLpro inhibition; design: species or system Norovirus genotype GII.4
T1 sequence (P54634 1009-1189): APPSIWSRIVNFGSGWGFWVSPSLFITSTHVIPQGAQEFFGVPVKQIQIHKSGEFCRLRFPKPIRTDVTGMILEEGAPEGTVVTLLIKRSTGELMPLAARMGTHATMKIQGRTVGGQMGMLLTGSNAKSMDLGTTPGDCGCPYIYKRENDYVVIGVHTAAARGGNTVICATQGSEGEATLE

Norovirus 3CL^pro [2] = assay: Western blot of FlipGFP cleavage; format: cell-based; settings: at higher inhibitor concentrations, compared with C139A control
VEGFR2 = settings: quoted in Description column of Table S1; no reference given; cited from earlier work
c-Met = settings: quoted in Description column of Table S1; no reference given; cited from earlier work

| SMILES | IC50 (Norovirus 3CL^pro [1]) | further results |
| --- | --- | --- |
| O=C(Nc1cccc(-c2nc(-c3ccc(NC(=O)c4cccnc4)cc3Cl)no2)c1)Nc1ccc(NC(=O)C2CC2)c(C(F)(F)F)c1 [EGFR-IN-8] | 290 ± 90 nM | Proteolytic cleavage of FlipGFP (Western blot) (Norovirus 3CL^pro [2]): proteolytic cleavage was markedly reduced |
| CC(=O)N1CCC(c2cc(-c3ccc(NC(=O)c4cccn(-c5ccc(F)cc5)c4=O)cc3F)c3c(N)ncnn23)CC1 [TAM-IN-2] | 1220 ± 440 nM | – |
| CCc1cc(Nc2nccc(-c3c(-c4ccc(OC)c(C(=O)Nc5c(F)cccc5F)c4)nc4ccccn34)n2)c(OC)cc1N1CCC(N2CCN(S(C)(=O)=O)CC2)CC1 [GSK1904529A] | 3940 ± 230 nM | – |
| O=c1[nH]c2ccccc2n1C1CCN(Cc2ccc(-c3[nH]c4cc5ncnc5cc4nc3-c3ccccc3)cc2)CC1 [Akt inhibitor VIII] | 590 ± 120 nM | – |
| N#Cc1ccc(O[C@H]2CC[C@H](NC(=O)c3ccc(N4CCC(CN5CCN(c6cc7c(cc6F)C(=O)N(C6CCC(=O)NC6=O)C7=O)CC5)CC4)nn3)CC2)cc1Cl (some centres unmarked) [Bavdegalutamide] | 970 ± 240 nM | – |
| CN(C)C1CCN(C(=O)c2ccc(NC(=O)Nc3ccc(-c4nc(N5CCOCC5)nc(N5CCOCC5)n4)cc3)cc2)CC1 [Gedatolisib] | – | Proteolytic cleavage of FlipGFP (Western blot) (Norovirus 3CL^pro [2]): proteolytic cleavage was markedly reduced |
| O=C(c1ccc(Nc2nccc(-c3cc4ccccc4s3)n2)cc1)N1CCC(N2CCCC2)CC1 [IKK 16] | 5090 ± 160 nM | – |
| CC(C)C[C@H](NC(=O)OCc1ccccc1)C(=O)N[C@@H](CC1CCNC1=O)C(O)S(=O)(=O)O (some centres unmarked) [GC376] | – | IC50 (Norovirus 3CL^pro [1]; HEK293T cells co-transfected with 3CLpro-FlipGFP and 3CLpro, compound added 6 h, fluorescence read 24 h post-transfection, triplicate, read-out: IC50): 2280 ± 170 nM |
| CN1CCN(C2CCN(C(=O)Nc3cc(Oc4ccc(NC(=O)C5(C(=O)Nc6ccc(F)cc6)CC5)c(F)c4)ccn3)CC2)CC1 [Golvatinib] | – | IC50 (VEGFR2): 16 nM; IC50 (c-Met): 14 nM |
